{"source": "patent US20110294732A1", "about": "“ERYTHROPOLETIN COMPLEMENTATION OR REPLACEMENT” (Universite De Strasbourg, priority 2007, published 2011)", "key": {"[1]": {"assay": "Effort capacity test", "assay_type": "in vivo, normal wild-type mice", "conditions": "normal animals, maximum", "excerpt": "The effort capacity of normal animals may be enhanced by up to 100% by ITPP administration, since more oxygen can be delivered to the working muscle."}, "[2]": {"test_system": "circulating RBCs", "assay": "P50 shift of circulating RBCs after ip injection", "assay_type": "in vivo, C57B1/6 mice", "conditions": "for P50 Shift %, 2 h, Mean +/- SD / P50 Shift %, 24 h, Mean +/- SD / P50 Shift %, 2 h / P50 Shift %, 24 h: ip; for P50 Shift %, 2 h, Mean +/- SD / P50 Shift %, 24 h, Mean +/- SD: 5 animals; for P50 Shift %, 2 h / P50 Shift %, 24 h: single animal", "method": "(§1) Blood from C57B1/6 mice collected 2 hrs and 1 day after injection of 45, 60, 120 and 150 mM solutions of ITPP was measured for P50-shifts as reported. […] No animal died or seemed to suffer from the compound."}, "[3]": {"assay": "Tolerability of ITPP injection in mice", "assay_type": "in vivo, C57B1/6 mice", "method": "as §1"}, "[4]": {"assay": "Blood counts of mice after oral ingestion", "assay_type": "in vivo", "excerpt": "Blood from mice that ingested ITPP or IHP in water (for 4 days) or water only was collected on day 0, 7 and 11, in order to assess any differences in the blood count (and the amount of erythropoietin in the sera) of treated and control mice. […] The amount of blood from the other mice was not sufficient to determine the blood count."}, "[5]": {"assay": "Blood counts of piglets after intravenous injection", "assay_type": "in vivo", "conditions": "iv 1 g/kg", "excerpt": "Blood from 2 piglets that received ITPP (1 g/kg body weight) was collected before injection, 2 hrs after, and daily over a period of 14 days after injection, in order to assess any differences in the blood counts of treated and non-treated piglets.\nBlood was taken from the heart of the dead animals for determination of blood counts as well as the amount of sodium, potassium and calcium in the sera. All numbers of blood cells (hematocrit, white blood cells etc.) were halved. The amount of potassium and calcium was normal, while sodium was doubled (before injection: 120-140 mmol/L; after injection: 245 mmol/L). Apparently, the large amount of sodium in that form of ITPP (6 Na^+/molecule) caused the death of the animals. It appears that up to 1 g ITPP per kg body weight can be injected intravenously, (if injected slowly) without harmful effects for the animals. […] A second piglet was also injected with ITPP at the 1 g/kg concentration, after 2 piglets had died after iv injection of 1.2 g ITPP (or even more) per kg body weight. […] Starting with day 3 after injection of the allosteric effector, the number of reticulocytes increased by about 3% for a period of 14 days."}}, "note": "Values joined by “and” are separate entries in the source; they are usually repeats but may differ in a detail not shown here. Equal values may be shown once. “Also recorded” adds a separate entry of the source."}
{"smiles": "O=P1(O)OC2C3OP(=O)(O)OP(=O)(O)OC3C3OP(=O)(O)OP(=O)(O)OC3C2OP(=O)(O)O1", "note": "(stereo not drawn) [ITPP, inositol-tripyrophosphate]", "values": [{"measurement": "enhancement of the effort capacity", "setting": "[1]", "value": "up to 100%"}, {"measurement": "time at which the P50 shift appears after inoculation", "setting": "[2]; ip inoculation", "value": 2, "unit": "h"}, {"measurement": "P50 Shift %, 2 h, Mean +/- SD", "setting": "[2]; 45 mM", "value": "11.8 +/− 1.16%"}, {"measurement": "P50 Shift %, 24 h, Mean +/- SD", "setting": "[2]; 45 mM", "value": "13.6 +/− 1.02%"}, {"measurement": "P50 Shift %, 2 h", "setting": "[2]; 45 mM", "value": "10% and 13% (2×) and 12% and 11%"}, {"measurement": "P50 Shift %, 24 h", "setting": "[2]; 45 mM", "value": 8, "unit": "%"}, {"measurement": "P50 Shift %, 2 h, Mean +/- SD", "setting": "[2]; 60 mM", "value": "16.9 +/− 3.48%"}, {"measurement": "P50 Shift %, 24 h, Mean +/- SD", "setting": "[2]; 60 mM", "value": "17.2 +/− 2.1%"}, {"measurement": "P50 Shift %, 2 h", "setting": "[2]; 60 mM", "value": "12% and 14% and 17% and 21% and 20.5%"}, {"measurement": "P50 Shift %, 24 h", "setting": "[2]; 60 mM", "value": "14% and 16% and 17% and 20% and 19%"}, {"measurement": "P50 Shift %, 2 h, Mean +/- SD", "setting": "[2]; 120 mM", "value": "26.0 +/− 2.28%"}, {"measurement": "P50 Shift %, 24 h, Mean +/- SD", "setting": "[2]; 120 mM", "value": "24.8 +/− 2.7%"}, {"measurement": "P50 Shift %, 2 h", "setting": "[2]; 120 mM", "value": "28% and 29% and 24% and 26% and 23%"}, {"measurement": "P50 Shift %, 24 h", "setting": "[2]; 120 mM", "value": "28% (2×) and 22% (2×) and 24%"}, {"measurement": "P50 Shift %, 2 h, Mean +/- SD", "setting": "[2]; 150 mM", "value": "27.0 +/− 1.78%"}, {"measurement": "P50 Shift %, 24 h, Mean +/- SD", "setting": "[2]; 150 mM", "value": "25.8 +/− 2.78%"}, {"measurement": "P50 Shift %, 2 h", "setting": "[2]; 150 mM", "value": "26% (2×) and 28% and 30% and 25%"}, {"measurement": "P50 Shift %, 24 h", "setting": "[2]; 150 mM", "value": "25% and 26% and 31% and 24% and 23%"}, {"measurement": "tolerability", "setting": "[3]; ip, concentrations up to 150 mM, no animal died", "value": "well tolerated"}, {"measurement": "tolerability", "setting": "[3]; mice, concentration of 120 mM", "value": "well tolerated"}, {"measurement": "time until the basal value of the RBC count is restored", "setting": "[4]; after ingestion, once ΔP50 becomes 0%", "value": 12, "unit": "days"}, {"measurement": "number of RBCs", "setting": "[4]; oral ingestion for 4 days", "value": "reduced significantly"}, {"measurement": "number of white blood cells versus other groups", "setting": "[4]; oral ingestion for 4 days", "value": "no major differences"}, {"measurement": "RBC × 10^6/mm^3 (day 7)", "setting": "[4]; single mouse, oral in water for 4 days, day 7, day 0 count 8.9-11.8", "value": "6.60 10^6/mm^3 and 5.73 10^6/mm^3 and 6.35 10^6/mm^3 and 5.64 10^6/mm^3 and 5.45 10^6/mm^3 and 8.76 10^6/mm^3 and 7.70 10^6/mm^3 and 6.54 10^6/mm^3 (2×)"}, {"measurement": "number of other cells such as white blood cells", "setting": "[5]", "value": "No major differences"}, {"measurement": "reticulocytes, increasing numbers", "setting": "[5]; 5-14 days after injection, day 14", "value": "up to 3.0%"}, {"measurement": "reticulocyte population after decrease", "setting": "[5]; first 3 days (24 to 72 hrs) after injection, from 1.4% / 1.5%", "value": 0.5, "unit": "%"}, {"measurement": "hematocrit and number of RBCs", "setting": "[5]; first days after injection", "value": "slight decrease; also recorded: decrease in hematocrit was observed"}, {"measurement": "pathological changes of the blood counts", "setting": "[5]; injected slowly", "value": "did not show any pathological changes"}, {"measurement": "increase of the number of reticulocytes", "setting": "[5]; starting with day 3, for a period of 14 days", "value": "about 3%"}]}
